Source: patent publication US6664260B2, “Heterocyclic ether substituted imidazoquinolines” (3M Innovative Properties Company, priority 2000, dated 2003)

Tests used:
[1] = tested on: tumor necrosis factor (α); assay: Cytokine Induction in Human Cells: tumor necrosis factor (α) secreted by PBMCs, ELISA; format: cell-based; design: key to Lowest Effective Concentration (μM) Tumor Necrosis Factor: A “*” indicates that no induction was seen at any of the tested concentrations; generally the highest tested concentration was 10 or 30 μM; conditions: incubated 18 to 24 hours, lowest concentration found to induce tumor necrosis factor; for minimal effective concentration: PBMC
Description: (§1) An in vitro human blood cell system is used to assess cytokine induction. Activity is based on the measurement of interferon and tumor necrosis factor (α) (IFN and TNF, respectively) secreted into culture media as described by Testerman et. al. In “Cytokine Induction by the Immunomodulators Imiquimod and S-27609”, Journal of Leukocyte Biology, 58, 365-372 (September, 1995).
(§2) Whole blood from healthy human donors is collected by venipuncture into EDTA vacutainer tubes. Peripheral blood mononuclear cells (PBMCs) are separated from whole blood by density gradient centrifugation using Histopaque®-1077. The PBMCs are washed twice with Hank's Balanced Salts Solution and then are suspended at 3-4×10^6 cells/mL in RPMI complete. The PBMC suspension is added to 48 well flat bottom sterile tissue culture plates (Costar, Cambridge, Mass. or Becton Dickinson Labware, Lincoln Park, N.J.) containing an equal volume of RPMI complete media containing test compound.
(§3) The compounds are solubilized in dimethyl sulfoxide (DMSO). The DMSO concentration should not exceed a final concentration of 1% for addition to the culture wells
(§4) The solution of test compound is added at 60 μM to the first well containing RPMI complete and serial 3 fold dilutions are made in the wells. The PBMC suspension is then added to the wells in an equal volume, bringing the test compound concentrations to the desired range (0.12 to 30 μM). The final concentration of PBMC suspension is 1.5-2×10^6 cells/mL. The plates are covered with sterile plastic lids, mixed gently and then incubated for 18 to 24 hours at 37° C. in a 5% carbon dioxide atmosphere.
(§5) Following incubation the plates are centrifuged for 5-10 minutes at 1000 rpm (˜200×g) at 4° C. The cell-free culture supernatant is removed with a sterile polypropylene pipet and transferred to sterile polypropylene tubes. Samples are maintained at −30 to −70° C. until analysis. The samples are analyzed for interferon (α) and for tumor necrosis factor (α) by ELISA.
Tumor necrosis factor (α) (TNF)concentration is determined using ELISA kits available from Genzyme, Cambridge, Mass.; R&D Systems, Minneapolis, Minn.; or Pharmingen, San Diego, Calif. Results are expressed in pg/mL.
(§6) The table below lists the lowest concentration found to induce interferon and the lowest concentration found to induce tumor necrosis factor for each compound.

[2] = tested on: interferon (α); assay: Cytokine Induction in Human Cells: interferon (α) secreted by PBMCs, ELISA; format: cell-based; conditions: PBMC, incubated 18 to 24 hours, lowest concentration found to induce interferon
Description: as §1, §2, §3, §4, §5
Interferon (α) concentration is determined by ELISA using a Human Multi-Species kit from PBL Biomedical Laboratories, New Brunswick, N.J. Results are expressed in pg/mL.
as §6

Structure (SMILES)	melting point	minimal effective concentration [1]	minimal effective concentration [2]	Lowest Effective Concentration (μM) Tumor Necrosis Factor [1]
Nc1nc2ccccc2c2c1ncn2CCOCCCc1ccccn1 [Example 6, 1-[2-(3-Pyridin-2-ylpropoxy)ethyl]-1H-imidazo[4,5-c]quinolin-4-amine]	138 to 140 °C	1.11 µM	0.12 µM	–
Nc1nc2ccccc2c2c1ncn2CCOCCCc1nccs1 [Example 7, 1-{2-[3-(1,3-Thiazol-2-yl)propoxy]ethyl}-1H-imidazo[4,5-c]quinolin-4-amine]	134 to 135 °C	–	0.37 µM	*
Nc1nc2ccccc2c2c1ncn2CCOCc1cn(CSc2ccccc2)nn1 [Example 11, 1-[2-({1-[(Phenylsulfanyl)methyl]-1H-1,2,3-triazol-4-yl}methoxy)ethyl]-1H-imidazo[4,5-c]quinoline-4-amine]	182 to 184 °C	0.04 µM	1.11 µM	–
Nc1nc2ccccc2c2c1ncn2CCOCc1ccccn1 [Example 14, 1-[2-(Pyridin-2-ylmethoxy)ethyl]-1H-imidazo[4,5-c]quinolin-4-amine]	196 to 198 °C	0.37 µM	0.12 µM	–

Continued, in another order:

melting point	Structure (SMILES)	minimal effective concentration [1]	minimal effective concentration [2]	Lowest Effective Concentration (μM) Tumor Necrosis Factor [1]
159 to 161 °C	Nc1nc2ccccc2c2c1ncn2CCOCc1ccncc1 [Example 15, 1-[2-(Pyridin-4-ylmethoxy)ethyl]-1H-imidazo[4,5-c]quinolin-4-amine]	3.33 µM	1.11 µM	–
213 to 215 °C	Cc1noc(C)c1COCCn1cnc2c(N)nc3ccccc3c21 [Example 16, 1-{2-[(3,5-Dimethylisoxazol-4-yl)methoxy]ethyl}-1H-imidazo[4,5-c]quinolin-4-amine]	10 µM	3.33 µM	–
148 to 150 °C	Nc1nc2ccccc2c2c1ncn2CCOCC#Cc1cccs1 [Example 30, 1-{2-[(3-thien-2-ylprop-2-ynyl)oxy]ethyl}-1H-imidazo[4,5-c]quinolin-4-amine]	3.33 µM	0.37 µM	–
243 to 245 °C	Cn1c(COCCn2cnc3c(N)nc4ccccc4c32)cc2ccccc21 [Example 31, 1-{2-[(1-methyl-1H-indol-2-yl)methoxy]ethyl}-1H-imidazo[4,5-c]quinolin-4-amine]	3.33 µM	3.33 µM	–
130.1 to 131.6 °C	Nc1nc2ccccc2c2c1ncn2CCOCCCc1cccs1 [Example 32, 1-[2-(3-thien-2-ylpropoxy)ethyl]-1H-imidazo[4,5-c]quinolin-4-amine]	1.11 µM	0.01 µM	–
145 to 146 °C	Cc1nc2c(N)nc3ccccc3c2n1CCOCCCc1cccnc1 [Example 34, 2-Methyl-1-[2-(3-pyridin-3-ylpropoxy)ethyl]-1H-imidazo[4,5-c]quinoline-4-amine]	0.04 µM	0.01 µM	–
